Test results as given in ChEMBL document CHEMBL5050844 (2019).
pIC50: −log10 of the molar value.

Tests used:
[1] = Induction of anti-CD3/CD28 antibodies-stimulated human T cell activation at 0.3 uM assessed fold increase in CD25 expression measured by ELISA assay; format: functional, T cell line
[2] = Induction of anti-CD3 antibodies-stimulated human T cell activation at 1 uM assessed fold increase in CD25 expression measured by ELISA assay; format: functional, T cell line; also: reference of the scale not given here
[3] = Induction of anti-CD3/CD28 antibodies-stimulated human T cell activation at 4 uM assessed fold increase in CD25 expression measured by ELISA assay; format: functional, T cell line
[4] = Induction of anti-CD3/CD28 antibodies-stimulated human T cell activation at 4 uM assessed fold increase in IL-2 secretion measured by ELISA assay; format: functional, T cell line
[5] = Induction of anti-CD3/CD28 antibodies-stimulated human T cell activation at 0.3 uM assessed fold increase in IL-2 secretion measured by ELISA assay; format: functional, T cell line
[6] = Induction of anti-CD3/CD28 antibodies-stimulated human T cell activation at 1 uM assessed fold increase in IL-2 secretion measured by ELISA assay; format: functional, T cell line
[7] = Induction of anti-CD3 antibodies-stimulated human T cell activation at 8 uM assessed fold increase in CD25 expression measured by ELISA assay; format: functional, T cell line; also: reference of the scale not given here
[8] = Induction of anti-CD3 antibodies-stimulated human T cell activation at 8 uM assessed fold increase in IL-2 secretion measured by ELISA assay; format: functional, T cell line; also: reference of the scale not given here
[9] = molecular target: E3 ubiquitin-protein ligase CBL-B (Homo sapiens, UniProt Q13191); test: Inhibition of N-terminal Avi-tagged human CBL-B (36 to 427 residues) incubated with 60 nM Src kinase for 1.5 hrs followed by incubation with fluorescently labeled UbcH5B-Ub for 1 hr and measured by TR-FRET assay; format: single protein
[10] = Induction of anti-CD3/CD28 antibodies-stimulated human T cell activation at 1 uM assessed fold increase in CD25 expression measured by ELISA assay; format: functional, T cell line
[11] = Induction of anti-CD3 antibodies-stimulated human T cell activation at 1 uM assessed fold increase in IL-2 secretion measured by ELISA assay; format: functional, T cell line; also: reference of the scale not given here

E3 ubiquitin-protein ligase CBL-B, sequence (Q13191 whole entry, the tested form may be a part): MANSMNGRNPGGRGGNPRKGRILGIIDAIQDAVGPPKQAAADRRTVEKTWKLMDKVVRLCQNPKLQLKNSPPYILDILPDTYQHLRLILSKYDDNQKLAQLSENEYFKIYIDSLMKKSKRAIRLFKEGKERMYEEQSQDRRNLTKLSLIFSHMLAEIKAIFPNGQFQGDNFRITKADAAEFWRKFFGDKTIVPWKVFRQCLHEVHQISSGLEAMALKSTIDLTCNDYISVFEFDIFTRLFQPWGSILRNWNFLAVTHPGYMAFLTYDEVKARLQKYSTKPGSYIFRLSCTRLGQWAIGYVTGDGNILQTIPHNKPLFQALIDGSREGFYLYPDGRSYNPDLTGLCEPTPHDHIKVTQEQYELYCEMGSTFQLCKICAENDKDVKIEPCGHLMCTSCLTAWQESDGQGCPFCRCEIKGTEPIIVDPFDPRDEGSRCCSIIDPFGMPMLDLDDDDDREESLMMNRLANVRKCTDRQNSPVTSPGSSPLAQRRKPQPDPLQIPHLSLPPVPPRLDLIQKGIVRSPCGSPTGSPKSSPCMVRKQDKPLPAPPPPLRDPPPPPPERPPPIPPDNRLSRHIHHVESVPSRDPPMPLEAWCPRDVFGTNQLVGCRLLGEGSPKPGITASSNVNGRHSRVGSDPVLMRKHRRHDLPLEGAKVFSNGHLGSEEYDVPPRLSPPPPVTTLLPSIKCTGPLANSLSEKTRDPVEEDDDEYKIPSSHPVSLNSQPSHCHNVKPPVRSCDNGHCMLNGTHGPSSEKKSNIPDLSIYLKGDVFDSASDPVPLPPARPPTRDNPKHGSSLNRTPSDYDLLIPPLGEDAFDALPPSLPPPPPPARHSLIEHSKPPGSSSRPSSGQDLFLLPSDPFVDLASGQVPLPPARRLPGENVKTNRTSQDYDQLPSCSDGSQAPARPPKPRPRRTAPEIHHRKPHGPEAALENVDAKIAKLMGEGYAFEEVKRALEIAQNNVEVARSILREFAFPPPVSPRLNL

pIC50 [9] | SMILES | fold change (FC) [1] | fold change (FC) [2] | fold change (FC) [3] | fold change (FC) [4] | fold change (FC) [5] | fold change (FC) [6] | fold change (FC) [7] | fold change (FC) [8] | fold change (FC) [10] | fold change (FC) [11]
> 7.00 | C[C@H](Sc1nncn1C)c1cccc(NC(=O)c2ccc(F)c(C3CC3)n2)c1 | <=1 | 0.601 | 1.01 | >=7.5 | 1.01 | 2.51 | >=1.001 | 0.101 | <=1 | <=0.05
> 7.00 | Cc1cc(C(=O)Nc2cccc(C3(Cc4nncn4C)COC3)c2)nc(C(F)(F)F)n1 | 1.01 | 0.801 | 1.01 | >=7.5 | 1.01 | 2.51 | >=1.001 | >=0.201 | 1.01 | 0.101
> 7.00 | Cc1cc(C(=O)Nc2cccc(C3(Cc4nncn4C)COC3)c2)nc(C2CC2)c1 | 1.31 | >=1.001 | 1.51 | >=7.5 | 5 | >=7.5 | >=1.001 | >=0.201 | 1.31 | >=0.201
> 7.00 | C[C@H](Sc1nncn1C)c1cccc(NC(=O)c2cccc(C3CC3)n2)c1 | 1.31 | <=0.6 | 1.51 | 2.51 | 1.01 | 2.51 | 0.801 | 0.151 | 1.51 | 0.051
> 7.00 | C[C@H](Cc1nncn1C)c1cccc(NC(=O)c2ccnc3ccnn23)c1 | 1.01 | 0.801 | 1.01 | 2.51 | 1.01 | 1.01 | >=1.001 | 0.101 | 1.01 | 0.051
> 7.00 | C[C@H](Sc1nncn1C)c1cccc(NC(=O)c2ccnc(C3CC3)n2)c1 | 1.01 | 0.601 | 1.31 | 5 | <=1 | 2.51 | >=1.001 | 0.051 | 1.01 | <=0.05

More lines, now with the values behind:

SMILES | pIC50 [9] | fold change (FC) [1] | fold change (FC) [2] | fold change (FC) [3] | fold change (FC) [4] | fold change (FC) [5] | fold change (FC) [6] | fold change (FC) [7] | fold change (FC) [8] | fold change (FC) [10] | fold change (FC) [11]
C[C@H]1C=CCN1Cc1cc2c(c(C(F)(F)F)c1)CN(c1cccc(C3(Cc4nncn4C)COC3)c1)C2=O | > 7.00 | 1.31 | >=1.001 | 1.51 | >=7.5 | >=7.5 | >=7.5 | >=1.001 | >=0.201 | 1.51 | >=0.201
Cn1cnnc1CC1(c2cccc(N3Cc4c(cc(CN5CC(C)(C#N)C5)cc4C(F)(F)F)C3=O)c2)COC1 | > 7.00 | 1.01 | 0.601 | 1.51 | >=7.5 | 2.51 | >=7.5 | <=0.6 | 0.051 | 1.31 | 0.151
C[C@@H]1CN(C)CCN1c1cc2c(c(C(F)(F)F)c1)CN(c1cccc([C@@](C)(F)C(F)(F)c3nncn3C)c1)C2=O | > 7.00 | 1.01 | 0.801 | 1.31 | 2.51 | 1.01 | 1.01 | >=1.001 | 0.101 | 1.01 | <=0.05
C[C@@H](c1cc2c(c(C(F)(F)F)c1)CN(c1cccc(C3(Cc4nncn4C)COC3)c1)C2=O)N1CCC(F)(F)C1 | > 7.00 | 1.31 | >=1.001 | 1.31 | >=7.5 | 2.51 | >=7.5 | >=1.001 | >=0.201 | 1.31 | 0.151
Cn1cnnc1C(F)(F)[C@](C)(F)c1cccc(N2Cc3c(cc(CN4CC[C@H](C#N)C4)cc3C(F)(F)F)C2=O)c1 | > 7.00 | 1.01 | >=1.001 | 1.31 | >=7.5 | 5 | >=7.5 | >=1.001 | >=0.201 | 1.31 | >=0.201
Cn1cnnc1CC1(c2cccc(N3Cc4c(cccc4C(F)(F)F)C3=O)c2)CC1 | > 7.00 | <=1 | >=1.001 | 1.01 | 5 | 2.51 | 2.51 | >=1.001 | >=0.201 | 1.01 | 0.051
C[C@H](Cc1nncn1C)c1cccc(N2Cc3c(cc([C@H](C)N4CC(O)C4)cc3C(F)(F)F)C2=O)c1 | > 7.00 | 1.01 | >=1.001 | 1.31 | >=7.5 | 5 | >=7.5 | >=1.001 | >=0.201 | 1.31 | >=0.201
Cn1cnnc1CC1(c2cccc(N3Cc4c(cc(CN5CCCC5=O)cc4C(F)(F)F)C3=O)c2)COC1 | > 7.00 | 1.01 | >=1.001 | 1.01 | 2.51 | 1.01 | 1.01 | >=1.001 | >=0.201 | 1.01 | 0.151
Cn1cnnc1CC1(c2cccc(N3Cc4c(cccc4C(F)(F)F)C3=O)c2)COC1 | > 7.00 | 1.01 | 0.801 | 1.31 | >=7.5 | 1.01 | 2.51 | >=1.001 | 0.101 | 1.01 | 0.051
